In general, EC50 refers to the concentration giving half of the maximal effect. By Kd is commonly meant the concentration at which binding is half-saturated.

Experiment [1] addresses 80S Ribosome. As to the kind of experiment: Inhibition of human 80S ribosome-mediated PCSK9 translation expressed in CHO-K1 cells assessed as reduction in PCSK9 secretion. The experiment is classed as cell-based.
Experiment [2] in a line: Modulation of full length SMN2 mRNA (unknown origin) splicing by luciferase reporter gene assay. More on the design: species or system Homo sapiens.
In experiment [3] the target is T1, Epidermal growth factor receptor substrate 15 (Homo sapiens, UniProt P42566).
T1 sequence (P42566 whole entry): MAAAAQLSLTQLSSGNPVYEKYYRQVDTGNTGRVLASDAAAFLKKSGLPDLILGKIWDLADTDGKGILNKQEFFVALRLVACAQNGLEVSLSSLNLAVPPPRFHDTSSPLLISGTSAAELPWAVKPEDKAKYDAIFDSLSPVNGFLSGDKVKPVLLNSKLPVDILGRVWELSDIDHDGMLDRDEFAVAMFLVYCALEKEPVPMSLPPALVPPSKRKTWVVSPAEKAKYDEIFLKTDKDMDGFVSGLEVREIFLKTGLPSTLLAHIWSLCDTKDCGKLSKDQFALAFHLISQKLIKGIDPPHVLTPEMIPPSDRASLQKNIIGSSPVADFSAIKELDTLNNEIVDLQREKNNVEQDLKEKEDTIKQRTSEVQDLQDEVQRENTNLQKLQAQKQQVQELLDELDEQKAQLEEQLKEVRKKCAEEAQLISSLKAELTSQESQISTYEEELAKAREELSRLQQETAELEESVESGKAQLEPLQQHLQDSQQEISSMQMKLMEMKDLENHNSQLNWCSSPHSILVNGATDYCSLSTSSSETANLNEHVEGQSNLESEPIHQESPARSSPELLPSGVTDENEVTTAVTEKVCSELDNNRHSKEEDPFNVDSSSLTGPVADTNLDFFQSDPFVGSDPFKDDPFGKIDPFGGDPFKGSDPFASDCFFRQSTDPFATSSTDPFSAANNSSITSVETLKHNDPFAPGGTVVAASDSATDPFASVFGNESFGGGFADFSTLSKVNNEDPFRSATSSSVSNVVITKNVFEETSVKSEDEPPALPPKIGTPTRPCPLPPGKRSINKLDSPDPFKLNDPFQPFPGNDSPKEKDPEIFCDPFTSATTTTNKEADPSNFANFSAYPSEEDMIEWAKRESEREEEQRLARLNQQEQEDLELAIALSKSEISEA
Kind of experiment: Inhibition of stonin-2 binding to Eps15 (unknown origin).

For experiment [4], the species on record is Homo sapiens. Kind of experiment: Selectivity ratio of Ki for human MC2R expressed in HEK cell membranes to Ki for human MC4R expressed in HEK cell membranes. The experiment is classed as cell-based.
The species named for experiment [5] is Homo sapiens. Kind of experiment: Selectivity ratio of Ki for human MC5R expressed in HEK cell membranes to Ki for human MC4R expressed in HEK cell membranes. The format is cell-based.
The species named for experiment [6] is Homo sapiens. Kind of experiment: Selectivity ratio of Ki for human MC1R expressed in HEK cell membranes to Ki for human MC4R expressed in HEK cell membranes. The experiment is classed as cell-based.
Experiment [7] deals with Plasma kallikrein (Homo sapiens, UniProt P03952). Kind of experiment: Binding affinity to human plasma kallikrein.
Sequence of Plasma kallikrein (P03952 20-390 limits assumed): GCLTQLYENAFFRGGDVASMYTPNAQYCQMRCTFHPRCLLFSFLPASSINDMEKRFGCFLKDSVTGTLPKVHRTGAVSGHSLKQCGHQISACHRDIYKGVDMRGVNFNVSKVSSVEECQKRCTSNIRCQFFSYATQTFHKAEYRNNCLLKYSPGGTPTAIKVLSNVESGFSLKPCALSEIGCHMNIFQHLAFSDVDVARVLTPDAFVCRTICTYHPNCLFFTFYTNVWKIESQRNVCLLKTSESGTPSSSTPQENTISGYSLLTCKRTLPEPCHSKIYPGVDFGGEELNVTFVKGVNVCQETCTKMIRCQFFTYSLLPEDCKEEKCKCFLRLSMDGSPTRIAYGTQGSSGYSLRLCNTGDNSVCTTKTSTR
Sequence of Plasma kallikrein (P03952 391-638 limits assumed): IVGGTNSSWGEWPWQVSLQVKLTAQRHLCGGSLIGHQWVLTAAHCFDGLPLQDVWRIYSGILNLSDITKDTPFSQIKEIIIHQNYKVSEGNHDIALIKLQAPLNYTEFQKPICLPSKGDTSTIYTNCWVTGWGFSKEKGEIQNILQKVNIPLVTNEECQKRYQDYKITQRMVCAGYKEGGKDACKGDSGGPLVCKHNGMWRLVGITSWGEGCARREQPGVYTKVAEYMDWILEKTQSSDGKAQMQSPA

Each structure is given as a SMILES string. Numbered stars: 1 amine (or outer) side, 2 acyl side, 3 side chain; on linkers, the order of the positions; unused ones are H or OH. Bridge positions count the residues as written; N and C are the ends. Peptide text beside a SMILES is read from it. TBMB = c1c(C[*:1])cc(C[*:3])cc1C[*:2]

For `COc1ccc(CCC(=O)N(c2nccc3c2CC=CC3)[C@@H]2CCCNC2)cc1`, in experiment [1], the EC50 was determined as 2200 nM.

`CN(c1ccc(-c2ccc(-c3cn[nH]c3)cc2O)nn1)C1CC(C)(C)NC(C)(C)C1` registered an EC50 in experiment [2] of 5 nM.

For `C[C@@H]1NC(=O)[C@H](CCCNC(=N)N)NC(=O)[C@H](Cc2c[nH]c3ccccc23)NC(=O)[C@@H]2CCCN2C(=O)[C@H](N)CSCc2cccc(c2)CSC[C@@H](C(=O)O)NC(=O)[C@H](Cc2ccccc2)NC(=O)[C@@H]2CCCN2C(=O)[C@H](CC(N)=O)NC(=O)[C@H]([C@@H](C)O)NC1=O`, binding in experiment [3] was put at a Kd of 370 nM. This lies in the sub-micromolar range.

As for `CC(C)C[C@@H]1NC(=O)CNC(=O)[C@H](CC(N)=O)NC(=O)[C@H](CCCNC(=N)N)NC(=O)[C@H]([C@@H](C)O)NC(=O)[C@@H]2CSSC[C@@H]3NC(=O)[C@H]([C@@H](C)O)NC(=O)CNC(=O)CNC(=O)[C@H](C(C)C)NC(=O)[C@@H]4CSSC[C@H](NC(=O)[C@H]([C@@H](C)O)NC(=O)[C@H](CSSC[C@H](NC(=O)[C@H](C(C)C)NC(=O)[C@@H]5CCCN5C1=O)C(=O)NCC(=O)N[C@@H](CCC(=O)O)C(=O)N[C@@H]([C@@H](C)O)C(=O)N4)NC(=O)CNC(=O)[C@@H]1CCCN1C(=O)[C@H]([C@@H](C)O)NC(=O)[C@H](CC(N)=O)NC3=O)C(=O)N[C@@H](CO)C(=O)N[C@@H](Cc1c[nH]c3ccccc13)C(=O)N1CCC[C@H]1C(=O)N[C@@H](C(C)C)C(=O)N2`, the Ratio Ki in experiment [4], in experiment [5] and in experiment [6] was 100 to 300 in each case.

In experiment [7], `CC(C)C[C@@H]1NC(=O)[C@H](C)NC(=O)[C@H](CCC(=O)O)NC(=O)[C@H](CC(=O)O)NC(=O)[C@H](C)NC(=O)[C@@H]2CCCN2C(=O)[C@@H]2CSCc3cc(cc(c3)CSC[C@@H](C(=O)NCC(=O)O)NC1=O)CSC[C@H](NC(=O)[C@H](C)N)C(=O)N[C@@H](CO)C(=O)N[C@@H](CC(=O)O)C(=O)N[C@@H](CCCNC(=N)N)C(=O)N[C@@H](Cc1ccccc1)C(=O)N[C@@H](CCCNC(=N)N)C(=O)N[C@@H](CC(N)=O)C(=O)N2` (H-ACSDRFRNCPADEALCG-OH; linker 2-9-16 via TBMB) displayed a Kd of 20 nM.

For the origin of these results see ChEMBL document CHEMBL4382194, “New Modalities, Technologies, and Partnerships in Probe and Lead Generation: Enabling a Mode-of-Action Centric Paradigm” (J Med Chem, 2018).
